Experimental data published in the kinase profiling compilation of Christmann-Franck et al. (2016).

Key:
Assay in all cases: radiometric filter-binding kinase assay, Kinase HotSpot
Conditions in all cases: compound 0.5 µM; ATP 10 µM
AURKB (human) = AURKB (human) (UniProt Q96GD4)
AXL (human) = AXL (human) (UniProt P30530)
BLK (human) = BLK (human) (UniProt P51451)
BRSK2 (human) = BRSK2 (human) (UniProt Q8IWQ3)
CDK1 CCNA2 (human) = CDK1 CCNA2 (human) (UniProt P06493+P20248)
CDK2 CCNE1 (human) = CDK2 CCNE1 (human) (UniProt P24941+P24864)
CDK7 CCNH MNAT1 (human) = CDK7 CCNH MNAT1 (human) (UniProt P50613+P51948+P51946)
CSNK1G2 (human) = CSNK1G2 (human) (UniProt P78368)
CSNK1G3 (human) = CSNK1G3 (human) (UniProt Q9Y6M4)
CSNK2A1 (human) = CSNK2A1 (human) (UniProt P68400)
DDR2 (human) = DDR2 (human) (UniProt Q16832)
DYRK2 (human) = DYRK2 (human) (UniProt Q92630)
DYRK4 (human) = DYRK4 (human) (UniProt Q9NR20)
FER (human) = FER (human) (UniProt P16591)
FGR (human) = FGR (human) (UniProt P09769)
GRK4 (human) = GRK4 (human) (UniProt P32298)
GRK5 (human) = GRK5 (human) (UniProt P34947)
HIPK4 (human) = HIPK4 (human) (UniProt Q8NE63)
INSR (human) = INSR (human) (UniProt P06213)
JAK3 JH1 JH2 (human) = JAK3 JH1 JH2 (human) (UniProt P52333)
LIMK1 (human) = LIMK1 (human) (UniProt P53667)
LRRK2 (human) = LRRK2 (human) (UniProt Q5S007)
MAP3K3 (human) = MAP3K3 (human) (UniProt Q99759)
MAP3K8 (human) = MAP3K8 (human) (UniProt P41279)
MAP4K2 (human) = MAP4K2 (human) (UniProt Q12851)
MAPK8 (human) = MAPK8 (human) (UniProt P45983)
MST4 (human) = MST4 (human) (UniProt Q9P289)
NEK4 (human) = NEK4 (human) (UniProt P51957)
NEK6 (human) = NEK6 (human) (UniProt Q9HC98)
PIM3 (human) = PIM3 (human) (UniProt Q86V86)
PLK3 (human) = PLK3 (human) (UniProt Q9H4B4)
PRKD1 (human) = PRKD1 (human) (UniProt Q15139)
RIPK2 (human) = RIPK2 (human) (UniProt O43353)
ROCK2 (human) = ROCK2 (human) (UniProt O75116)
RPS6KA2 KD1 KD2 (human) = RPS6KA2 KD1 KD2 (human) (UniProt Q15349)
SGK2 (human) = SGK2 (human) (UniProt Q9HBY8)
SIK2 (human) = SIK2 (human) (UniProt Q9H0K1)
SRPK3 (human) = SRPK3 (human) (UniProt Q9UPE1)
STK16 (human) = STK16 (human) (UniProt O75716)
TEK (human) = TEK (human) (UniProt Q02763)
[1] = target: TYK2 JH1 catalytic (human) (UniProt P29597)
ULK2 (human) = ULK2 (human) (UniProt Q8IYT8)

Chain of BRSK2 (human) (Q8IWQ3 whole entry, looked up): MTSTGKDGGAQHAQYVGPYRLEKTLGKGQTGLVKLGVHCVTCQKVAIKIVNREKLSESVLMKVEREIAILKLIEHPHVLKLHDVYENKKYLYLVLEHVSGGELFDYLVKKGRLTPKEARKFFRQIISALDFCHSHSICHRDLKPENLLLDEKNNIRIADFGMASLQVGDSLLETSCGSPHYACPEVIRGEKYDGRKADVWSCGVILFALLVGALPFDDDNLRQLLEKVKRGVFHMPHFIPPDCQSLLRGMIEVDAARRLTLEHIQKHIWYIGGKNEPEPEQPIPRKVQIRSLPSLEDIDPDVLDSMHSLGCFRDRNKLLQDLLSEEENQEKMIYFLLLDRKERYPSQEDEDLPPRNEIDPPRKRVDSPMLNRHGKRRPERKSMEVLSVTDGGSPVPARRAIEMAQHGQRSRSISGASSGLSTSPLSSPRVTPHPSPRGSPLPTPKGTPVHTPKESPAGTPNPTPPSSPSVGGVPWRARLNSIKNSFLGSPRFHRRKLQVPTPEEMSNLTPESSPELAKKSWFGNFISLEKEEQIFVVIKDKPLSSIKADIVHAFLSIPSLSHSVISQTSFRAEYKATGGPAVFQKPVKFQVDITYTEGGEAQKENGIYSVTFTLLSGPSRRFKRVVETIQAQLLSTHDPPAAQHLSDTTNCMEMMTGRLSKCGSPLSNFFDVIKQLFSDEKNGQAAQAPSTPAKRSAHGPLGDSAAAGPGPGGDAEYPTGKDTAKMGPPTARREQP
Chain of NEK6 (human) (Q9HC98 whole entry, looked up): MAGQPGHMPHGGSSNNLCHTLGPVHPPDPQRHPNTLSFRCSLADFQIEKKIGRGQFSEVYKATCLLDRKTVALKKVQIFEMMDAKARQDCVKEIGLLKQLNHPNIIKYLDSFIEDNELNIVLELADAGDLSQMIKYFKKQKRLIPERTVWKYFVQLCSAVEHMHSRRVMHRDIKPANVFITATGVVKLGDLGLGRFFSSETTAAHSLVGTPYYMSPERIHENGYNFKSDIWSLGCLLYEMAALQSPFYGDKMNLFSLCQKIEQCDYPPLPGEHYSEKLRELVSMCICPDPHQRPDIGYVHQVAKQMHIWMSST
Chain of DDR2 (human) (Q16832 whole entry, looked up): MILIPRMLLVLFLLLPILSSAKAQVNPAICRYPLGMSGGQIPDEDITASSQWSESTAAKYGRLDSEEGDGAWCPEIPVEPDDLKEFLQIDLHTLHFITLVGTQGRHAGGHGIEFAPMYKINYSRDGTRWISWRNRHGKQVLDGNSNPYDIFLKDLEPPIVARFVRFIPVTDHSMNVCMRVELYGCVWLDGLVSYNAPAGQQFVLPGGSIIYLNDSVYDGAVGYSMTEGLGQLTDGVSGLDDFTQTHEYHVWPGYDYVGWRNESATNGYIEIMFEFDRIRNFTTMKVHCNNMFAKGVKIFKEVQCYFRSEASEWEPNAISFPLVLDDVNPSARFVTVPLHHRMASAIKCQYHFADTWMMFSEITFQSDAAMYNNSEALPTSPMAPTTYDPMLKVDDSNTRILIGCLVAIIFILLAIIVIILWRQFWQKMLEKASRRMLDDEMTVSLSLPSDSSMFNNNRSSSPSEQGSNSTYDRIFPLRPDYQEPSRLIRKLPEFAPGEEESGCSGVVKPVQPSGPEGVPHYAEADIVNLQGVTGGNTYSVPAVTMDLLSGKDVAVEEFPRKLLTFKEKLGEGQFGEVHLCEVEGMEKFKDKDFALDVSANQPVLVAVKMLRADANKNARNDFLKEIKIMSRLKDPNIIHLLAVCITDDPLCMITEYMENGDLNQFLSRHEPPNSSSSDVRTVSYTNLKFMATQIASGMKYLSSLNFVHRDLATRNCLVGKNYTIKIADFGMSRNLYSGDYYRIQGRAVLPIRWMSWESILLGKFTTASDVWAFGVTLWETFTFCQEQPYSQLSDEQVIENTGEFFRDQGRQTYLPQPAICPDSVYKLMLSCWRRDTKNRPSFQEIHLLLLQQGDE
Chain of SRPK3 (human) (Q9UPE1 whole entry, looked up): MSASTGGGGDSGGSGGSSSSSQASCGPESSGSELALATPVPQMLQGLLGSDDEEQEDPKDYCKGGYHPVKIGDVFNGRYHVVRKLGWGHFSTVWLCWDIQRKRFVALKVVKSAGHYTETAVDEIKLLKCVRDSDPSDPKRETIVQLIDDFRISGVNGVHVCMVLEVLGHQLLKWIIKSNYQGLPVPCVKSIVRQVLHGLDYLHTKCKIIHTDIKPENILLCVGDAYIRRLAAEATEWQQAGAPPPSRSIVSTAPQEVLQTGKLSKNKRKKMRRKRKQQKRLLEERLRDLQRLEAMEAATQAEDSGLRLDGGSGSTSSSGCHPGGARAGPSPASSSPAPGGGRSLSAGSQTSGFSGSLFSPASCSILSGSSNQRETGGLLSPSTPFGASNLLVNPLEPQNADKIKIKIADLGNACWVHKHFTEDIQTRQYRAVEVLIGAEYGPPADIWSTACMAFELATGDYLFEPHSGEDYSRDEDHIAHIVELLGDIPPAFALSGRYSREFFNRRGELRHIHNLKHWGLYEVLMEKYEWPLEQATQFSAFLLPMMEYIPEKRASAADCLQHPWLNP
Chain of CSNK1G2 (human) (P78368 whole entry, looked up): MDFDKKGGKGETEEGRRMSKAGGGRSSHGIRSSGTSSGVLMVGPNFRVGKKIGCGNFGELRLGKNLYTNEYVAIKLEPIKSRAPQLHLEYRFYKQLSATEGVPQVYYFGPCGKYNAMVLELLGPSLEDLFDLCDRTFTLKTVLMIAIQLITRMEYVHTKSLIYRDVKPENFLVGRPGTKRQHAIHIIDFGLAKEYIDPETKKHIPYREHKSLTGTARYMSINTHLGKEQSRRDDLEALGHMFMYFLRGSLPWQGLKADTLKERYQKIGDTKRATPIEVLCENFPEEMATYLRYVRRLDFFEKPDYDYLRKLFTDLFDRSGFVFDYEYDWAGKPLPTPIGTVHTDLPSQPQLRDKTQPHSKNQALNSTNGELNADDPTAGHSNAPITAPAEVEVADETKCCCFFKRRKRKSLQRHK
Chain of FGR (human) (P09769 whole entry, looked up): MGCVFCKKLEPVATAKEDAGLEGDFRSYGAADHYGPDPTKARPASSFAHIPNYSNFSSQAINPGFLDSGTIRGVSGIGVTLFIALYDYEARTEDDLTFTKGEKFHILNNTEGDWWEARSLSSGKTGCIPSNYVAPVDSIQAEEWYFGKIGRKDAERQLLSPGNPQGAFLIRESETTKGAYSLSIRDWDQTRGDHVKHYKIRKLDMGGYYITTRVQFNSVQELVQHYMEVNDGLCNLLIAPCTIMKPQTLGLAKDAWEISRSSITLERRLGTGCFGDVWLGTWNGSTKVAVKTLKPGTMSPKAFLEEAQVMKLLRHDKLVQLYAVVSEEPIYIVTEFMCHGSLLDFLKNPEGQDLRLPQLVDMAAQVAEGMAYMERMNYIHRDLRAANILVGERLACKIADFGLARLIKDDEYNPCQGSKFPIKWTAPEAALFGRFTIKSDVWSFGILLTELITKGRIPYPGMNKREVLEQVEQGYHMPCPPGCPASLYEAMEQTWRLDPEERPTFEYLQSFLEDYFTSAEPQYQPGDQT
Chain of MAPK8 (human) (P45983 whole entry, looked up): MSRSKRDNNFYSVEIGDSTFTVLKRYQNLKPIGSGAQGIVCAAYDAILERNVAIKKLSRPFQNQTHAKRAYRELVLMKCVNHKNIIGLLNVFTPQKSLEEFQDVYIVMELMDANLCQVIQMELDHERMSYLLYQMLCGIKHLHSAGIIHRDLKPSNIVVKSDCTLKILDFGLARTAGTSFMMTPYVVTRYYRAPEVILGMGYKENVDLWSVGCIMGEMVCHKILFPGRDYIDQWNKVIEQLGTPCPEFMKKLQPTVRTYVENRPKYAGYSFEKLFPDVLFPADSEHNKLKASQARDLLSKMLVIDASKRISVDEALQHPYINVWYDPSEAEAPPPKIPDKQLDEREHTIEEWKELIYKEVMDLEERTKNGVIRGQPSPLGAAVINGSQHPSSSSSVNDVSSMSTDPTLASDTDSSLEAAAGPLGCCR
Chain of HIPK4 (human) (Q8NE63 whole entry, looked up): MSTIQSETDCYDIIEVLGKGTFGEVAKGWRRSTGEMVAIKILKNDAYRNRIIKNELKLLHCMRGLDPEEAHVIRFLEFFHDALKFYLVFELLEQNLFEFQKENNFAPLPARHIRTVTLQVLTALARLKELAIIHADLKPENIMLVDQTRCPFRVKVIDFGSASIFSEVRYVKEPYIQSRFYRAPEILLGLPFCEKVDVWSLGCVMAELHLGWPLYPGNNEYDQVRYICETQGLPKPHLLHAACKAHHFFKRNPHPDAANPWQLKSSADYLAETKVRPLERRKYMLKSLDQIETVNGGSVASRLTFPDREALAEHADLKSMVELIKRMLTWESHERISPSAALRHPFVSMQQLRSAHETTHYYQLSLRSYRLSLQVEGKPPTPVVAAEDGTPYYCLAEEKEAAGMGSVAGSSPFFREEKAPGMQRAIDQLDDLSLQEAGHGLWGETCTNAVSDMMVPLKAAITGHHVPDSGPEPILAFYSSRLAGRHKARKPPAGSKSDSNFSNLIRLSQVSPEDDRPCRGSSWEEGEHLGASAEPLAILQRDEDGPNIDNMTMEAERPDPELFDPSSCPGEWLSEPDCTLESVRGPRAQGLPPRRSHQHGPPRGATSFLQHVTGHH
Chain of MST4 (human) (Q9P289 whole entry, looked up): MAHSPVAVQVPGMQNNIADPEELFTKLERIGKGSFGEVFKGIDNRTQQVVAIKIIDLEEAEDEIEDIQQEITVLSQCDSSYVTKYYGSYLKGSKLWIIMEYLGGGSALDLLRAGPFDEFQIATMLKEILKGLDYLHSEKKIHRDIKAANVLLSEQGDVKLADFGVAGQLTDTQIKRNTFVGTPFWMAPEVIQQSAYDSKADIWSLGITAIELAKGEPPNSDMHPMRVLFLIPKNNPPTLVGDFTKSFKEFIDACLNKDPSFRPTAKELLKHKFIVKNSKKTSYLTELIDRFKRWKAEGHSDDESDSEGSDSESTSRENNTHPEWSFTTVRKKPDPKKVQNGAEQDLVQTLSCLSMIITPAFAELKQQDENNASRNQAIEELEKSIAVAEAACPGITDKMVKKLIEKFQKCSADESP

Oc1ccc(-c2nc(-c3ccc(F)cc3)c(-c3ccncc3)[nH]2)cc1
residual activity (AURKB (human)): 104%
residual activity (AXL (human)): 99.8%
residual activity (BLK (human)): 101%
residual activity (BRSK2 (human)): 101%
residual activity (CDK1 CCNA2 (human)): 90.9%
residual activity (CDK2 CCNE1 (human)): 90.6%
residual activity (CDK7 CCNH MNAT1 (human)): 99.4%
residual activity (CSNK1G2 (human)): 91.9%
residual activity (CSNK1G3 (human)): 102%
residual activity (CSNK2A1 (human)): 92.4%
residual activity (DDR2 (human)): 86.3%
residual activity (DYRK2 (human)): 99.3%
residual activity (DYRK4 (human)): 101%
residual activity (FER (human)): 94.5%
residual activity (FGR (human)): 93%
residual activity (GRK4 (human)): 98.5%
residual activity (GRK5 (human)): 104%
residual activity (HIPK4 (human)): 89.7%
residual activity (INSR (human)): 91.5%
residual activity (JAK3 JH1 JH2 (human)): 95.8%
residual activity (LIMK1 (human)): 91.4%
residual activity (LRRK2 (human)): 95.8%
residual activity (MAP3K3 (human)): 103%
residual activity (MAP3K8 (human)): 96.6%
residual activity (MAP4K2 (human)): 101%
residual activity (MAPK8 (human)): 98%
residual activity (MST4 (human)): 101%
residual activity (NEK4 (human)): 94%
residual activity (NEK6 (human)): 99.4%
residual activity (PIM3 (human)): 98.7%
residual activity (PLK3 (human)): 96.2%
residual activity (PRKD1 (human)): 90.7%
residual activity (RIPK2 (human)): 46.8%
residual activity (ROCK2 (human)): 93.6%
residual activity (RPS6KA2 KD1 KD2 (human)): 101%
residual activity (SGK2 (human)): 99.6%
residual activity (SIK2 (human)): 83.4%
residual activity (SRPK3 (human)): 95.9%
residual activity (STK16 (human)): 111%
residual activity (TEK (human)): 99.6%
residual activity [1]: 106%
residual activity (ULK2 (human)): 97.3%

Cc1ccc(NC(=O)c2ccc(CN3CCN(C)CC3)cc2)cc1Nc1nc(-c2cccnc2)cs1
residual activity (AURKB (human)): 99.5%
residual activity (AXL (human)): 86.5%
residual activity (BLK (human)): 57.5%
residual activity (BRSK2 (human)): 99.9%
residual activity (CDK1 CCNA2 (human)): 98%
residual activity (CDK2 CCNE1 (human)): 95%
residual activity (CDK7 CCNH MNAT1 (human)): 110%
residual activity (CSNK1G2 (human)): 92.9%
residual activity (CSNK1G3 (human)): 96.8%
residual activity (CSNK2A1 (human)): 99.2%
residual activity (DDR2 (human)): 36.4%
residual activity (DYRK2 (human)): 109%
residual activity (DYRK4 (human)): 100%
residual activity (FER (human)): 97.6%
residual activity (FGR (human)): 43.6%
residual activity (GRK4 (human)): 108%
residual activity (GRK5 (human)): 106%
residual activity (HIPK4 (human)): 101%
residual activity (INSR (human)): 99%
residual activity (JAK3 JH1 JH2 (human)): 93.7%
residual activity (LIMK1 (human)): 98.1%
residual activity (LRRK2 (human)): 107%
residual activity (MAP3K3 (human)): 108%
residual activity (MAP3K8 (human)): 91.5%
residual activity (MAP4K2 (human)): 103%
residual activity (MAPK8 (human)): 107%
residual activity (MST4 (human)): 97%
residual activity (NEK4 (human)): 92.4%
residual activity (NEK6 (human)): 91.3%
residual activity (PIM3 (human)): 73.7%
residual activity (PLK3 (human)): 101%
residual activity (PRKD1 (human)): 98.2%
residual activity (RIPK2 (human)): 108%
residual activity (ROCK2 (human)): 95.1%
residual activity (RPS6KA2 KD1 KD2 (human)): 99.7%
residual activity (SGK2 (human)): 106%
residual activity (SIK2 (human)): 99.7%
residual activity (SRPK3 (human)): 102%
residual activity (STK16 (human)): 103%
residual activity (TEK (human)): 97.2%
residual activity [1]: 101%
residual activity (ULK2 (human)): 103%

O=C1Cc2c([nH]c3ccc([N+](=O)[O-])cc23)-c2ccccc2N1
residual activity (AURKB (human)): 85.9%
residual activity (AXL (human)): 100%
residual activity (BLK (human)): 94.2%
residual activity (BRSK2 (human)): 34.5%
residual activity (CDK1 CCNA2 (human)): 54.5%
residual activity (CDK2 CCNE1 (human)): 19.6%
residual activity (CDK7 CCNH MNAT1 (human)): 99.9%
residual activity (CSNK1G2 (human)): 91.7%
residual activity (CSNK1G3 (human)): 90%
residual activity (CSNK2A1 (human)): 86.8%
residual activity (DDR2 (human)): 103%
residual activity (DYRK2 (human)): 72%
residual activity (DYRK4 (human)): 106%
residual activity (FER (human)): 75.1%
residual activity (FGR (human)): 50.3%
residual activity (GRK4 (human)): 99.3%
residual activity (GRK5 (human)): 107%
residual activity (HIPK4 (human)): 103%
residual activity (INSR (human)): 101%
residual activity (JAK3 JH1 JH2 (human)): 99.7%
residual activity (LIMK1 (human)): 94.3%
residual activity (LRRK2 (human)): 96.5%
residual activity (MAP3K3 (human)): 100%
residual activity (MAP3K8 (human)): 99%
residual activity (MAP4K2 (human)): 8.77%
residual activity (MAPK8 (human)): 99.6%
residual activity (MST4 (human)): 78.6%
residual activity (NEK4 (human)): 109%
residual activity (NEK6 (human)): 97.1%
residual activity (PIM3 (human)): 62.3%
residual activity (PLK3 (human)): 98.8%
residual activity (PRKD1 (human)): 95.6%
residual activity (RIPK2 (human)): 43.4%
residual activity (ROCK2 (human)): 82%
residual activity (RPS6KA2 KD1 KD2 (human)): 62%
residual activity (SGK2 (human)): 111%
residual activity (SIK2 (human)): 56.5%
residual activity (SRPK3 (human)): 92.7%
residual activity (STK16 (human)): 93.1%
residual activity (TEK (human)): 92.1%
residual activity [1]: 56.5%
residual activity (ULK2 (human)): 72.7%
